Experimental data from US10335382B2, “Use of hydrogen sulfide synthesis inhibitors for cancer therapy” (THE BOARD OF REGENTS OF THE UNIVERSITY OF TEXAS SYSTEM, priority 2013, dated 2019).
“Also recorded” adds a separate entry of the source.

How the values were obtained:
HCT116 cells = assay: Bioenergetic analysis in intact cells (XF24 Extracellular Flux Analyzer); format: cell-based, human; details: AOAA 1 mM
Method: The XF24 Extracellular Flux Analyzer (Seahorse Bioscience, Billerica, Mass.) was used to measure bioenergetic function as described in Módis et al. ((2013) FASEB J 27:601-11) and Wu et al. ((2007) Am J Physiol Cell Physiol. 292:C125-36). Oxygen consumption rate (OCR) after oligomycin (1.5 μg/ml) was used to assess ATP production rate and OCR after FCCP (0.5 μM) to assess maximal mitochondrial respiratory capacity. 2-deoxyglucose (100 mM) was used to estimate cellular glycolytic dependency and antimycin A (2 μg/m) and rotenone (2 μM) were used to inhibit the flux of electrons through complex III and I, to detect residual non-mitochondrial activity. For the measurement of glycolytic parameters, the changes in proton production rate (PPR) were monitored in response to the sequential administration of D-glucose (10 mM), oligomycin (1.5 μM) and 2-deoxyglucose (100 mM), to assess glycolysis, maximal glycolytic capacity, glycolytic reserve capacity, and non-glycolytic acidification rate, respectively. GAPDH activity was determined by a kinetic assay (ScienCell, Carlsbad, Calif.).

[1] = tested on: peritumor microvessel blood flow; assay: Tumor microvascular blood flow (laser Doppler); format: in vivo, mice; details: intratumoral injection; AOAA 9 mg/kg, L-cysteine 1 mg/kg
Method: FIG. 6. L-Cysteine increases, while AOAA reduces microvessel blood flow in tumor bearing mice. Tumor bearing mice were anesthetized by i.p. injection of ketamine-xylazine and a laser Doppler (PeriFlux system 5000) was placed on top of the tumor for microvessel blood flow measurements. After a stabilization period, L-Cys or AOAA were injected subcutaneously in proximity of the tumor. […] Data represent mean±SEM of n=6 determinations.
Skin microvascular blood flow was measured using a PeriFlux 5000 laser-Doppler flowmeter. Mice bearing PTX were anesthetized by ketamine-xylazine (i.p.). The laser-Doppler probe was placed on top of the tumors and a stable basal signal was recorded. Changes in the subcutaneous microcirculatory perfusion were detected following intratumoral injections of either L-cysteine (1 mg/kg) or AOAA (9 mg/kg).

CBS = target: T1, CBS (Homo sapiens, UniProt P35520); assay: H2S production in colon cancer tissue extracts (methylene blue method); format: biochemical; design: from tissue; host or cells: human colorectal tumor tissue and patient-matched normal mucosa homogenates; details: AOAA 1 mM; L-cysteine 3 mM, L-homocysteine 0.5 mM, 37° C., 30 min
T1 sequence (P35520 1-551): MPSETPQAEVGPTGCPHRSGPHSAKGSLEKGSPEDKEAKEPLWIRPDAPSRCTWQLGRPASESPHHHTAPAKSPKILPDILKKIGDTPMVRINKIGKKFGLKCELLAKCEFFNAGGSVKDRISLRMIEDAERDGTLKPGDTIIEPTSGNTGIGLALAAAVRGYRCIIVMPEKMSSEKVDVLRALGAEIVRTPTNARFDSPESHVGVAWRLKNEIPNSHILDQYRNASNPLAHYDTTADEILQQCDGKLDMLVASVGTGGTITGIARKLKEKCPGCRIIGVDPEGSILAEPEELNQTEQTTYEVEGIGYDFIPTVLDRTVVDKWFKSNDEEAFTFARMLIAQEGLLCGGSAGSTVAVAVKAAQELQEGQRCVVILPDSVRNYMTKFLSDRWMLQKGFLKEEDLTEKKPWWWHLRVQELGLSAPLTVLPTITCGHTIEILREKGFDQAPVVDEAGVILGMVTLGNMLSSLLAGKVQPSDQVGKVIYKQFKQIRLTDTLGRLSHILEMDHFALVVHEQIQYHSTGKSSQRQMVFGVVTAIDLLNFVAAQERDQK
Excerpt: FIG. 1. CBS is overexpressed in human colorectal cancer. (A) Representative Western blot of CBS, CSE and 3-MST protein expression in human colorectal cancer specimens, paired with the corresponding normal mucosa tissues. PVDF membranes were probed with rabbit polyclonal antibodies against CBS, CSE and 3-MST. […] (C, D) CBS was highly expressed in three different colon cancer cell lines (LoVo, HCT116 and HT29); low expression was detected in the non-tumorigenic normal colon mucosa cells (NCM356) (arbitrary relative densitometric units were normalized with β-actin using image analysis software) (*p<0.05 vs NCM356 cells) (E) or in colon cancer cell lines (F) by the methylene blue method. H2S production was stimulated in tissue or cell lysates by incubation at 37° C. (30 min) in presence of the CBS substrates L-cysteine (3 mM) and L-homocysteine (0.5 mM). […] Western blots show representatives of at least n=3 experiments; H2S measurements represent mean±SEM of at least n=3 determinations.
H2S production can be measured in a tissue homogenate by using a methylene blue assay. Briefly, 1% zinc acetate is added to a tissue homogenate to trap H2S followed by 10% trichloroacetic acid to precipitate proteins. […] The absorbance of the resulting solution is measured at 655 nm. H2S content is calculated against a calibration curve of standard H2S solutions. […]

## NOCC(=O)O [AOAA, aminooxyacetic acid]
HCT116 cells
  basal OCR, calculated ATP production, maximal respiration and Spare Respiratory Capacity: significantly decreased
  maximal glycolytic capacity and glycolytic reserve capacity: significantly diminished
[1]
  peritumor / skin microvessel blood flow: significantly reduced; also recorded: marked decrease
CBS
  H2S-producing activity of CBS in tissue extracts: blocked the H2S-producing activity
